# According to patent publication US20240018158A1, “BRM TARGETING COMPOUNDS AND ASSOCIATED METHODS OF USE” (Prelude Therapeutics Incorporated, priority 2020, published 2024):
# Biological target: SMARCA2 (Homo sapiens (Human), UniProt P51531)
# Assay: SMARCA2 HiBiT degradation assay in HEK293T cells
# Format: cell-based
# Settings: 293T HiBiT assay, 24 h; for DC50: read-out: DC50 (SM2-293T) SMARCA2 degradation potency; for Dmax: HEK-293T, read-out: Dmax % (SM2-293T) maximum SMARCA2 degradation within the concentrations tested
# Procedure: HiBiT peptide knock-in of SMARCA2 in LgBiT expressing HEK293T cells was performed by CRISPR-mediated tagging system as described Promega. The homozygous HiBiT knock-in on c-terminus SMARCA2 was confirmed by sanger sequence. SMARCA2-HiBiT knock-in Hela monoclonal cell (CS302366) and SMARCA4-HiBiT knock-in Hela monoclonal cell (CS3023226) were purchased from Promega. The heterozygous HiBiT-knock-in was confirmed by sanger sequence in both SMARCA2-HiBiT and SMARCA4-HiBiT monoclonal cells. Compounds were prepared in a low dead volume plate at 3-fold serial dilution, and then transferred 25 nL/well into a 384 well plate (Corning: #356661) by Agilent Bravo liquid dispenser. SMARCA2-HiBiT monoclonal HEK293T cells were added at 5,000/well/25 uL into the compound containing 384 well plate. After 24 h incubation, 25 uL/well of Nano-Glo HiBiT Lytic detection buffer (Promega: N3050) was added to the wells and incubate for 10 min on a shaker, centrifuged for 5 min, and then RLU was detected on a microplate reader (Envision, PerkinElmer). The RLU ratio values are normalized to percent inhibition as follows: % inhibition=((HC−LC)−(compound−LC))/(HC−LC))*100, where HC=high control=mean signal of DMSO only; LC=low control=mean signal of 100% inhibition of RLU by 1 μM PRT1001728. An 11-point dose response curve for each compound will be generated using normalized % inhibition to determine IC50 values based on the equation: Y=Bottom+((Top-Bottom)/(1+((IC50/X)^Slope))), where Y is the % inhibition in the presence of X inhibitor concentration; Top=the top plateau of the curve; Bottom=the bottom plateau of the curve; Slope=Hill coefficient; DC50=concentration of compound with 50% degradation in relation to top/high control. DC50 values were determined by using XLfit Model 205.
# SMARCA2, sequence (P51531 whole entry): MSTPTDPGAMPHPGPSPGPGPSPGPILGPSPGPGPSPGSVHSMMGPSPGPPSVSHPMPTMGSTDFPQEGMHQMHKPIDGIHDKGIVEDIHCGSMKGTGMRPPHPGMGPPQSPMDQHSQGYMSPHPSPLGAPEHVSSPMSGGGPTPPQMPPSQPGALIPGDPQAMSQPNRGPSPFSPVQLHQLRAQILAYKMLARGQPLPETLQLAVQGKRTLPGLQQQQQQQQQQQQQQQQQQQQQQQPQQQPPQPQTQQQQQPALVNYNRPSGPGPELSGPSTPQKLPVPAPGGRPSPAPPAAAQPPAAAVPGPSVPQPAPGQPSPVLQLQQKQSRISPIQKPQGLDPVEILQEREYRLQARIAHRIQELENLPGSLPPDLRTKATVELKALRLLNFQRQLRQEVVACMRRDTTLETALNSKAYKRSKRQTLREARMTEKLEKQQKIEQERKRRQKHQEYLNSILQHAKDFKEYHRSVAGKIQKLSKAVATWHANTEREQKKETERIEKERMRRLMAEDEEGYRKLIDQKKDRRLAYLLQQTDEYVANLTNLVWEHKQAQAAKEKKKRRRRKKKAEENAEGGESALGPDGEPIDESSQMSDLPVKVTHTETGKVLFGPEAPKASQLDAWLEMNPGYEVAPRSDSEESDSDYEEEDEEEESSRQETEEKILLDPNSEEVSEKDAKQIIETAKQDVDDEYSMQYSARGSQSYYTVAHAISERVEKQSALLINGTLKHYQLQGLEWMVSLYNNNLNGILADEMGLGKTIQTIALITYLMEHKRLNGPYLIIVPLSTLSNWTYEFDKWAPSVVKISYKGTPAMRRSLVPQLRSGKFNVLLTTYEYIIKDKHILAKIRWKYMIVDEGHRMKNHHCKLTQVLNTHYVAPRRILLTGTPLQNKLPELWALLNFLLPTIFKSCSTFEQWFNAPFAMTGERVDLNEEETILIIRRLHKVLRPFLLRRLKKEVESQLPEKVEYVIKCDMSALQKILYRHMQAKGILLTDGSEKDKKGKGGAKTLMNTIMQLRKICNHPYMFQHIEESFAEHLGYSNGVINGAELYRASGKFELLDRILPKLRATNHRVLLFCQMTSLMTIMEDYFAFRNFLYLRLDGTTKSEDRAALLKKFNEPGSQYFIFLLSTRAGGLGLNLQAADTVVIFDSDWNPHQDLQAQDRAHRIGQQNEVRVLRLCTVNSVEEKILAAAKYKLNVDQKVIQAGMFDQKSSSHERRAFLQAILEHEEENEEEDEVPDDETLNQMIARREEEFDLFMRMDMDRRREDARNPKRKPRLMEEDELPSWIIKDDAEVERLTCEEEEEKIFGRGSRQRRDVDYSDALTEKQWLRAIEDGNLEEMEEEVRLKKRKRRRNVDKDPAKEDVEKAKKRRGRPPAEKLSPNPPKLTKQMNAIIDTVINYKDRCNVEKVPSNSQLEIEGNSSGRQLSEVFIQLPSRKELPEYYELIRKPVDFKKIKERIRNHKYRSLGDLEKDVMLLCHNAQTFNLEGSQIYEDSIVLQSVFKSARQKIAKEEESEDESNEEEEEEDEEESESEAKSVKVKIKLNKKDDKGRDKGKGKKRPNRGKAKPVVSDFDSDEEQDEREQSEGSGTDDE
SMILES,DC50,Dmax
"Cc1ncsc1-c1ccc([C@H](C)NC(=O)[C@@H]2C[C@@H](O)CN2C(=O)[C@@H](c2cc(OCCN3CCC(CN4CCN5c6cc(-c7ccccc7O)nnc6NC[C@H]5C4)C3)no2)C(C)C)cc1 (stereo partly drawn) [Example 15, (2S,4R)-4-hydroxy-1-((2R)-2-(3-(2-(3-(((S)-2-(2-hydroxyphenyl)-5,6,6a,7,9,10-hexahydro-8H-pyrazino[1′,2′:4,5]pyrazino[2,3-c]pyridazin-8-yl)methyl)pyrrolidin-1-yl)ethoxy)isoxazol-5-yl)-3-methylbutanoyl)-N-((S)-1-(4-(4-methylthiazol-5-yl)phenyl)ethyl)pyrrolidine-2-carboxamide]",< 100 nM,> 75%
"Cc1ncsc1-c1ccc([C@H](C)NC(=O)[C@@H]2C[C@@H](O)CN2C(=O)[C@@H](c2cc(OCCN3CCCC(N4CCN5c6cc(-c7ccccc7O)nnc6NC[C@H]5C4)CC3)no2)C(C)C)cc1 (stereo partly drawn) [Example 16, (2S,4R)-4-hydroxy-1-((2R)-2-(3-(2-(4-((S)-2-(2-hydroxyphenyl)-5,6,6a,7,9,10-hexahydro-8H-pyrazino[1′,2′:4,5]pyrazino[2,3-c]pyridazin-8-yl)azepan-1-yl)ethoxy)isoxazol-5-yl)-3-methylbutanoyl)-N-((S)-1-(4-(4-methylthiazol-5-yl)phenyl)ethyl)pyrrolidine-2-carboxamide]",< 100 nM,> 75%
"Cc1ncsc1-c1ccc([C@H](C)NC(=O)[C@@H]2C[C@@H](O)CN2C(=O)[C@@H](c2cc(OC(C)CN3CCC(N4CCN5c6cc(-c7ccccc7O)nnc6NC[C@H]5C4)CC3)no2)C(C)C)cc1 (stereo partly drawn) [Example 17, (2S,4R)-4-hydroxy-1-((2R)-2-(3-((1-(4-((S)-2-(2-hydroxyphenyl)-5,6,6a,7,9,10-hexahydro-8H-pyrazino[1′,2′:4,5]pyrazino[2,3-c]pyridazin-8-yl)piperidin-1-yl)propan-2-yl)oxy)isoxazol-5-yl)-3-methylbutanoyl)-N-((S)-1-(4-(4-methylthiazol-5-yl)phenyl)ethyl)pyrrolidine-2-carboxamide]",< 100 nM,> 75%
"Cc1ncsc1-c1ccc([C@H](C)NC(=O)[C@@H]2C[C@@H](O)CN2C(=O)[C@@H](c2cc(OCCN3CCC(CN4CCC(N5CCN6c7cc(-c8ccccc8O)nnc7NC[C@H]6C5)CC4)CC3)no2)C(C)C)cc1 [Example 20, (2S,4R)-4-hydroxy-1-((R)-2-(3-(2-(4-((4-((S)-2-(2-hydroxyphenyl)-5,6,6a,7,9,10-hexahydro-8H-pyrazino[1′,2′:4,5]pyrazino[2,3-c]pyridazin-8-yl)piperidin-1-yl)methyl)piperidin-1-yl)ethoxy)isoxazol-5-yl)-3-methylbutanoyl)-N-((S)-1-(4-(4-methylthiazol-5-yl)phenyl)ethyl)pyrrolidine-2-carboxamide]",< 100 nM,> 75%
"Cc1ncsc1-c1ccc([C@H](C)NC(=O)[C@@H]2C[C@@H](O)CN2C(=O)[C@@H](c2cc(OCCN3CCN(CCN4CCC(N5CCN6c7cc(-c8ccccc8O)nnc7NC[C@H]6C5)CC4)CC3)no2)C(C)C)cc1 [Example 21, (2S,4R)-4-hydroxy-1-((R)-2-(3-(2-(4-(2-(4-((S)-2-(2-hydroxyphenyl)-5,6,6a,7,9,10-hexahydro-8H-pyrazino[1′,2′:4,5]pyrazino[2,3-c]pyridazin-8-yl)piperidin-1-yl)ethyl)piperazin-1-yl)ethoxy)isoxazol-5-yl)-3-methylbutanoyl)-N-((S)-1-(4-(4-methylthiazol-5-yl)phenyl)ethyl)pyrrolidine-2-carboxamide]",< 100 nM,> 75%
"Cc1ncsc1-c1ccc([C@H](C)NC(=O)[C@@H]2C[C@@H](O)CN2C(=O)[C@@H](c2cc(OCCN3CCC(CCN4CCC(N5CCN6c7cc(-c8ccccc8O)nnc7NC[C@H]6C5)CC4)CC3)no2)C(C)C)cc1 [Example 22, (2S,4R)-4-hydroxy-1-((R)-2-(3-(2-(4-(2-(4-((S)-2-(2-hydroxyphenyl)-5,6,6a,7,9,10-hexahydro-8H-pyrazino[1′,2′:4,5]pyrazino[2,3-c]pyridazin-8-yl)piperidin-1-yl)ethyl)piperidin-1-yl)ethoxy)isoxazol-5-yl)-3-methylbutanoyl)-N-((S)-1-(4-(4-methylthiazol-5-yl)phenyl)ethyl)pyrrolidine-2-carboxamide]",< 100 nM,> 75%
"Cc1ncsc1-c1ccc([C@H](C)NC(=O)[C@@H]2C[C@@H](O)CN2C(=O)[C@@H](c2cc(OC(C)CN3CCCC(CN4CCN5c6cc(-c7ccccc7O)nnc6NC[C@H]5C4)C3)no2)C(C)C)cc1 (stereo partly drawn) [Example 23, (2S,4R)-4-hydroxy-1-((2R)-2-(3-((1-(3-(((S)-2-(2-hydroxyphenyl)-5,6,6a,7,9,10-hexahydro-8H-pyrazino[1′,2′:4,5]pyrazino[2,3-c]pyridazin-8-yl)methyl)piperidin-1-yl)propan-2-yl)oxy)isoxazol-5-yl)-3-methylbutanoyl)-N-((S)-1-(4-(4-methylthiazol-5-yl)phenyl)ethyl)pyrrolidine-2-carboxamide]",< 100 nM,> 75%
"Cc1ncsc1-c1ccc([C@H](C)NC(=O)[C@@H]2C[C@@H](O)CN2C(=O)[C@@H](c2cc(OC(C)CN3CCCC(CN4CCN5c6cc(-c7ccccc7O)nnc6NC[C@H]5C4)C3)no2)C(C)C)cc1 (stereo partly drawn) [Example 24, (2S,4R)-4-hydroxy-1-((2R)-2-(3-((1-(3-(((S)-2-(2-hydroxyphenyl)-5,6,6a,7,9,10-hexahydro-8H-pyrazino[1′,2′:4,5]pyrazino[2,3-c]pyridazin-8-yl)methyl)piperidin-1-yl)propan-2-yl)oxy)isoxazol-5-yl)-3-methylbutanoyl)-N-((S)-1-(4-(4-methylthiazol-5-yl)phenyl)ethyl)pyrrolidine-2-carboxamide]",< 100 nM,–
"Cc1ncsc1-c1ccc([C@H](C)NC(=O)[C@@H]2C[C@@H](O)CN2C(=O)C(c2cc(CN3CCC(CN4CCN5c6cc(-c7ccccc7O)nnc6NC[C@H]5C4)CC3)no2)C(C)C)cc1 (stereo partly drawn) [Example 32, (2S,4R)-4-hydroxy-1-(2-(3-((4-(((S)-2-(2-hydroxyphenyl)-5,6,6a,7,9,10-hexahydro-8H-pyrazino[1′,2′:4,5]pyrazino[2,3-c]pyridazin-8-yl)methyl)piperidin-1-yl)methyl)isoxazol-5-yl)-3-methylbutanoyl)N-((S)-1-(4-(4-methylthiazol-5-yl)phenyl)ethyl)pyrrolidine-2-carboxamide]",< 100 nM,> 75%
"Cc1ncsc1-c1ccc([C@H](C)NC(=O)[C@@H]2C[C@@H](O)CN2C(=O)[C@@H](c2cc(CCCN3CCC(N4CCN5c6cc(-c7ccccc7O)nnc6NC[C@H]5C4)CC3)no2)C(C)C)cc1 [Example 33, (2S,4R)-4-hydroxy-1-((R)-2-(3-(3-(4-((S)-2-(2-hydroxyphenyl)-5,6,6a,7,9,10-hexahydro-8H-pyrazino[1′,2′:4,5]pyrazino[2,3-c]pyridazin-8-yl)piperidin-1-yl)propyl)isoxazol-5-yl)-3-methylbutanoyl)-N-((S)-1-(4-(4-methylthiazol-5-yl)phenyl)ethyl)pyrrolidine-2-carboxamide]",< 100 nM,> 75%
